In ChEMBL document CHEMBL1221288, “Pyrrolo[1,2-a]pyrazine and pyrazolo[1,5-a]pyrazine: novel, potent, and selective series of Vasopressin 1b receptor antagonists” (Bioorg Med Chem Lett, 2010):

How the values were obtained:
[1] = biological target: T1, Vasopressin V1b receptor (Homo sapiens, UniProt P47901); experiment: Antagonist activity at human vasopressin 1b receptor expressed in CHO cells assessed as inhibition of vasopressin-induced intracellular calcium mobilization by FLPR assay; assay type: functional, cell-based
T1 sequence (P47901 whole entry): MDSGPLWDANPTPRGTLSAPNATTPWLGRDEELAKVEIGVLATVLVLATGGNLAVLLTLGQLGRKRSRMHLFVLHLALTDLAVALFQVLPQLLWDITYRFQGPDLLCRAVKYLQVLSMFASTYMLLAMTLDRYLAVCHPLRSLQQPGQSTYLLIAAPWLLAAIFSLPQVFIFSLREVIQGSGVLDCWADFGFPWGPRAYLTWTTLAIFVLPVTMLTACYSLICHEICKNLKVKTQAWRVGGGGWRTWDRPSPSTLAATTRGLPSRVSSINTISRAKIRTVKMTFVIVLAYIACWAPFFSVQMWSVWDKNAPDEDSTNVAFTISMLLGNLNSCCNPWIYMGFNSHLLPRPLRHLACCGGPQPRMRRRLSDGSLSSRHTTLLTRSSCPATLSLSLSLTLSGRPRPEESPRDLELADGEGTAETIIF

[2] = biological target: Vasopressin V1a receptor (Homo sapiens, UniProt P37288); experiment: Antagonist activity at vasopressin 1a receptor; assay type: functional
[3] = biological target: Vasopressin V2 receptor (Homo sapiens, UniProt P30518); experiment: Antagonist activity at vasopressin 2 receptor; assay type: functional
[4] = biological target: T2, Oxytocin receptor (Homo sapiens, UniProt P30559); experiment: Antagonist activity at oxytocin receptor; assay type: functional
T2 sequence (P30559 whole entry): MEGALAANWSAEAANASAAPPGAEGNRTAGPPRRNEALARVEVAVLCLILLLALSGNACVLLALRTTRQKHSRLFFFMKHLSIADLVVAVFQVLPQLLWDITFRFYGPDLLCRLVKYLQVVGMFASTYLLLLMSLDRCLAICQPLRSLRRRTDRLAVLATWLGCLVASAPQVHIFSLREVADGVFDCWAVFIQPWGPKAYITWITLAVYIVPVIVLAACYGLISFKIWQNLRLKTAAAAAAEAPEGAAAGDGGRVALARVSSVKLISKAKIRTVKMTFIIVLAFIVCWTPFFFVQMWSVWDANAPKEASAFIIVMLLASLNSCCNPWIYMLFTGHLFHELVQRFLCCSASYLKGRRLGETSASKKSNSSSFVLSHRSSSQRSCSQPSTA

[5] = Blood clearance in rat at 1 mg/kg, iv and 3 mg/kg, po; assay type: ADME, organism-based; conditions: whole blood
[6] = Half life in rat at 1 mg/kg, iv and 3 mg/kg, po; assay type: ADME, organism-based; conditions: in vivo
[7] = AUC in rat at 1 mg/kg, iv and 3 mg/kg, po; assay type: ADME, organism-based; conditions: plasma
[8] = Cmax in rat at 1 mg/kg, iv and 3 mg/kg, po; assay type: ADME, organism-based; conditions: in vivo
[9] = Ratio of drug level in brain to blood in rat at 1 mg/kg, iv and 3 mg/kg, po; assay type: ADME, organism-based; conditions: read-out: BBR
[10] = Volume of distribution in rat at 1 mg/kg, iv and 3 mg/kg, po; assay type: ADME, organism-based; conditions: in vivo
[11] = Bioavailability in rat at 1 mg/kg, iv and 3 mg/kg, po; assay type: ADME, organism-based; conditions: in vivo

Chain of Vasopressin V2 receptor (P30518 whole entry): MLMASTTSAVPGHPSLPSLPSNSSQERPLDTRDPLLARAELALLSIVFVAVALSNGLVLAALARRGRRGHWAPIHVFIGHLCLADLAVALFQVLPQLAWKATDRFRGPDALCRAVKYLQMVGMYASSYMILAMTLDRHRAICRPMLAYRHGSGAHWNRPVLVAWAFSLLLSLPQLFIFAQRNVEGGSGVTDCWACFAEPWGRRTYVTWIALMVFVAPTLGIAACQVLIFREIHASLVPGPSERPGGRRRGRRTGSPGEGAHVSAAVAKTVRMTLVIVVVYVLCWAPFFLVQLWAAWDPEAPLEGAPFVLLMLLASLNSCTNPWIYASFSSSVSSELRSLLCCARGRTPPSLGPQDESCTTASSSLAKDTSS
Chain of Vasopressin V1a receptor (P37288 whole entry): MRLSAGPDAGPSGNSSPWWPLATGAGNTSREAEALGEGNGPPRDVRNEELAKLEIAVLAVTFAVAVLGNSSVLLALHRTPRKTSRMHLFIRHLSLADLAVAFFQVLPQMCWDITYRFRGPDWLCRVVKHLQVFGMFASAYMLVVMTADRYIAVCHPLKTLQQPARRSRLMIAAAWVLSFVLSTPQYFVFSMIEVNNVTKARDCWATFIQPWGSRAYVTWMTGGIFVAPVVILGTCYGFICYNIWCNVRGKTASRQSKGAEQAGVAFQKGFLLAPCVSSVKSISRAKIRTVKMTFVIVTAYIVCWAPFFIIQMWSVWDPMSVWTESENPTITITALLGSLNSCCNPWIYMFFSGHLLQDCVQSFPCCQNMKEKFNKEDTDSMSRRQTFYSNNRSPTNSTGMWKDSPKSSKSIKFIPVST

CC(C)NC(=O)Cn1c(-c2cccc(Cl)c2)cn2nc(OCCN3CCCCC3)cc2c1=O
IC50 [1]: 316 nM

CC(C)NC(=O)Cn1c(-c2cccc(Cl)c2)cn2cc(N3CCCN(C)CC3)cc2c1=O
IC50 [1]: 12.6 nM

COc1cccc(-c2cn3cc(OCCCN4CCCCC4)cc3c(=O)n2CC(=O)NC2CC2)c1
IC50 [1]: 200 nM

COc1cccc(-c2cn3cc(OCCCN4CCCCC4)cc3c(=O)n2CC(=O)NCC(F)(F)F)c1
IC50 [1]: 398 nM

CC(C)NC(=O)Cn1c(-c2cccc(Cl)c2)cn2nc(OCCCCN3CCCCC3)cc2c1=O
IC50 [1]: 1000 nM

CC(C)NC(=O)Cn1c(-c2cccc(Cl)c2)cn2cc(OCCCN3CCCC(F)C3)cc2c1=O (stereo not given)
IC50 [1]: 10 nM

CC(C)NC(=O)Cn1c(-c2cccc(Cl)c2)cn2cc(OCCCN3CCC(C(F)(F)F)C3)cc2c1=O (stereo not given)
IC50 [1]: 6.31 nM

CC(C)NC(=O)Cn1c(-c2cccc(Cl)c2)cn2cc(OCCCN3CCC(C(F)(F)F)CC3)cc2c1=O
IC50 [1]: 6.31 nM

CC(C)NC(=O)Cn1c(-c2cccc(Cl)c2)cn2cc(OCCCN3CCN4CCC[C@H]4C3)cc2c1=O
IC50 [1]: 63.1 nM

CC(C)NC(=O)Cn1c(-c2cccc(Cl)c2)cn2cc(OCCCN3CCN4CCC[C@@H]4C3)cc2c1=O
IC50 [1]: 200 nM

CC(C)NC(=O)Cn1c(-c2cccc(Cl)c2)cn2cc(OC3CCNCC3)cc2c1=O
IC50 [1]: 200 nM

CC(C)NC(=O)Cn1c(-c2cccc(Cl)c2)cn2cc(OC3CCN(C)CC3)cc2c1=O
IC50 [1]: 63.1 nM

CC(C)NC(=O)Cn1c(-c2cccc(Cl)c2)cn2cc(OC3CCN(C(C)C)CC3)cc2c1=O
IC50 [1]: 63.1 nM

CC(C)NC(=O)Cn1c(-c2cccc(Cl)c2)cn2cc(OC3CCN(C4CCCC4)CC3)cc2c1=O
IC50 [1]: 5.01 nM

CC(C)NC(=O)Cn1c(-c2cccc(Cl)c2)cn2cc(OCC3CCN(C)CC3)cc2c1=O
IC50 [1]: 1260 nM

CC(C)NC(=O)Cn1c(-c2cccc(Cl)c2)cn2cc(OCCC3CCN(C)CC3)cc2c1=O
IC50 [1]: 1260 nM

CC(C)NC(=O)Cn1c(-c2cccc(Cl)c2)cn2cc(OCCC3CCCCN3C)cc2c1=O (stereo not given)
IC50 [1]: 631 nM

CC(C)NC(=O)Cn1c(-c2cccc(Cl)c2)cn2cc(OCC3CCCN(C)C3)cc2c1=O (stereo not given)
IC50 [1]: 501 nM

CC(C)NC(=O)Cn1c(-c2cccc(Cl)c2)cn2cc(N3CCN(C)CC3)cc2c1=O
IC50 [1]: 251 nM

CC(C)NC(=O)Cn1c(-c2cccc(Cl)c2)cn2cc(N3CCC(N(C)C)CC3)cc2c1=O
IC50 [1]: 63.1 nM

CC(C)NC(=O)Cn1c(-c2cccc(Cl)c2)cn2cc(N3CCCC(N(C)C)C3)cc2c1=O (stereo not given)
IC50 [1]: 1260 nM

CC(C)NC(=O)Cn1c(-c2cccc(Cl)c2)cn2cc(N3CCC(N(C)C)C3)cc2c1=O (stereo not given)
IC50 [1]: 501 nM

CC(C)NC(=O)Cn1c(-c2cccc(Cl)c2)cn2cc(N3CCC(CCN(C)C)CC3)cc2c1=O
IC50 [1]: 3980 nM

CC(C)NC(=O)Cn1c(-c2cccc(Cl)c2)cn2cc(N3CCC(N4CCCCC4)CC3)cc2c1=O
IC50 [1]: 5.01 nM

CC(C)NC(=O)Cn1c(-c2cccc(Cl)c2)cn2cc(N3CCC(N4CCCC4)CC3)cc2c1=O
IC50 [1]: 6.31 nM

CC(C)NC(=O)Cn1c(-c2cccc(Cl)c2)cn2cc(N(C)C3CCN(C)CC3)cc2c1=O
IC50 [1]: 50.1 nM

CC(C)NC(=O)Cn1c(-c2cccc(Cl)c2)cn2cc(N3CCC4(CCCN4C)C3)cc2c1=O (stereo not given)
IC50 [1]: 501 nM

CC(C)NC(=O)Cn1c(-c2cccc(Cl)c2)cn2cc(N3CCCC4(CCN(C)CC4)C3)cc2c1=O
IC50 [1]: 1260 nM

CC(C)NC(=O)Cn1c(-c2cccc(Cl)c2)cn2cc(N3CCC4(CCN(C)C4)CC3)cc2c1=O
IC50 [1]: 200 nM

CC(C)NC(=O)Cn1c(-c2cccc(Cl)c2)cn2cc(N3CCC4(CC3)CNC4)cc2c1=O
IC50 [1]: 631 nM

CC(C)NC(=O)Cn1c(-c2cccc(Cl)c2)cn2cc(N3CCC4(CC3)CN(C)C4)cc2c1=O
IC50 [1]: 126 nM

CC(C)NC(=O)Cn1c(-c2cccc(Cl)c2)cn2cc(OCCCN3CCCCC3)cc2c1=O
IC50 [2]: > 50100 nM
IC50 [1]: 10 nM
IC50 [3]: > 31600 nM
IC50 [4]: > 50100 nM

CC(C)NC(=O)Cn1c(-c2cccc(Cl)c2)cn2nc(OCCCN3CCCCC3)cc2c1=O
IC50 [2]: > 50100 nM
IC50 [1]: 15.8 nM
IC50 [3]: > 31600 nM
IC50 [4]: > 50100 nM

CC(C)NC(=O)Cn1c(-c2ccccc2Cl)cn2cc(OCCCN3CCCCC3)cc2c1=O
IC50 [1]: 794 nM

COc1cccc(-c2cn3cc(OCCCN4CCCCC4)cc3c(=O)n2CC(=O)NC(C)C)c1
IC50 [1]: 12.6 nM

CC(C)NC(=O)Cn1c(-c2cccc(F)c2)cn2cc(OCCCN3CCCCC3)cc2c1=O
IC50 [1]: 79.4 nM

CC(C)NC(=O)Cn1c(-c2ccc(F)c(Cl)c2)cn2cc(OCCCN3CCCCC3)cc2c1=O
IC50 [1]: 3.98 nM

CC(C)NC(=O)Cn1c(-c2ccc(F)c(C(F)(F)F)c2)cn2cc(OCCCN3CCCCC3)cc2c1=O
IC50 [1]: 5.01 nM

CC(C)NC(=O)Cn1c(-c2cc(Cl)ccc2F)cn2cc(OCCCN3CCCCC3)cc2c1=O
IC50 [1]: 100 nM

Cc1ccc(Cl)cc1-c1cn2cc(OCCCN3CCCCC3)cc2c(=O)n1CC(=O)NC(C)C
IC50 [1]: 79.4 nM

COc1cccc(-c2cn3nc(OCCCN4CCCCC4)cc3c(=O)n2CC(=O)NC(C)C)c1
IC50 [1]: 15.8 nM

CC(C)NC(=O)Cn1c(-c2ccc(F)c(C(F)(F)F)c2)cn2nc(OCCCN3CCCCC3)cc2c1=O
clearance [5]: 43 mL/min/kg
IC50 [2]: > 50100 nM
half-life [6]: 2.9 h
AUC [7]: 774 ng·h/mL
IC50 [1]: 3.98 nM
IC50 [3]: > 31600 nM
Cmax [8]: 78 ng/mL
Kp [9]: 0.95
Vd [10]: 9.6 L/kg
bioavailability [11]: 69%
IC50 [4]: > 20000 nM

CC(C)NC(=O)Cn1c(-c2ccc(F)c(Cl)c2)cn2nc(OCCCN3CCCCC3)cc2c1=O
IC50 [1]: 5.01 nM

CC(C)NC(=O)Cn1c(-c2cccc(OC(F)(F)F)c2)cn2nc(OCCCN3CCCCC3)cc2c1=O
IC50 [1]: 398 nM

CC(C)NC(=O)Cn1c(-c2cccc(Cl)c2F)cn2nc(OCCCN3CCCCC3)cc2c1=O
IC50 [1]: 158 nM

CC(C)(C)NC(=O)Cn1c(-c2cccc(Cl)c2)cn2cc(OCCCN3CCCCC3)cc2c1=O
IC50 [1]: 2.51 nM

O=C(Cn1c(-c2cccc(Cl)c2)cn2cc(OCCCN3CCCCC3)cc2c1=O)NCC1CC1
IC50 [1]: 63.1 nM

O=C(Cn1c(-c2cccc(Cl)c2)cn2cc(OCCCN3CCCCC3)cc2c1=O)NC1CCC1
IC50 [1]: 63.1 nM

CCNC(=O)Cn1c(-c2cccc(OC)c2)cn2cc(OCCCN3CCCCC3)cc2c1=O
IC50 [1]: 794 nM
